Source: ChEMBL document CHEMBL1149295, “A combined QM/MM approach to protein--ligand interactions: polarization effects of the HIV-1 protease on selected high affinity inhibitors” (J Med Chem, 2004)
pKi: −log10 of the molar value.

Experiment: Inhibition of HIV1 protease
Parameters: species or system Human immunodeficiency virus 1

Row | Compound | pKi
1 | Nc1cccc(CN2C(=O)N(Cc3cccc(N)c3)[C@H](Cc3ccccc3)[C@H](O)[C@@H](O)[C@H]2Cc2ccccc2)c1 [MOZENAVIR] | 9.39
2 | Cc1c(O)cccc1C(=O)N[C@@H](CSc1ccccc1)[C@H](O)CN1C[C@H]2CCCC[C@H]2C[C@H]1C(=O)NC(C)(C)C [NELFINAVIR] | 9.55
3 | CCC[C@@]1(CCc2ccccc2)CC(O)=C([C@H](CC)c2cccc(NS(=O)(=O)c3ccc(C(F)(F)F)cn3)c2)C(=O)O1 [TIPRANAVIR] | 11.10
